How the values were obtained:
[1] = target: T1, acetylcholinesterase (Homo sapiens, UniProt P22303); assay: Hydrolysis study in vitro with acetylcholinesterase (HPLC); assay type: in vitro ADME; details: for assay of compound remaining during enzymatic hydrolysis: acetylcholinesterase 2.0 mg/ml, simulated tear pH 7.4, 37.5° C.
T1 construct: purchased
Description: The commercial esterase was dissolved in simulated tear (pH 7.4). Dissolving an appropriate amount of the compounds of the invention in solvent. The stock solutions were kept in screw-capped vials at 4° C. The reaction was initiated by adding stock solution of the prodrug to preheated esterase solution in a screw-capped vial at 37.5° C. The solution was kept in a water bath at 37.5° C. and at appropriate time intervals. 20 mL aliquot was taken and, after filtration using membrane syringe filter, analyzed immediately by HPLC.
The tear fluid was prepared by dissolving sodium chloride (0.67%, w/v), sodium bicarbonate (0.2% w/v) and calcium chloride dihydrate (0.008% w/v) in water and pH was adjusted to 7.4.
(§1) The acetylcholinesterase was dissolved in simulated tear (pH 7.4) to give a concentration of 2.0 mg/ml. Dissolving the appropriate number of compound 1 in pH 7.0 buffer solution to obtain a concentration of […]. The stock solutions were kept in screw-capped vials at 4° C. The reaction was initiated by adding 20 uL of a stock solution of the compound 1 in pH 7.0 buffer solution to 1 ml of preheated esterase solution in a screw-capped vial at 37.5° C., for a total of 10 identical reaction solutions. The reaction solutions were kept in a water bath at 37.5° C. and at 20 min intervals an aliquot was taken and, after filtration using membrane syringe filter, analyzed immediately by HPLC.
as §1, with “compound 2” for “compound 1”, “20 μL” for “20 uL”, “of 11” for “of 10”
as §1, with “compound 3” for “compound 1”, “20 μL” for “20 uL”, “1 mL” for “1 ml”, “of 12” for “of 10”

[2] = tested on: rabbit pupil; assay: Miotic effect in rabbits (pupil diameter); assay type: in vivo, male New Zealand White rabbits
Description: The ocular activity evaluation based on the miotic effect in rabbits
The pupil size was determined for several compounds in male New Zealand White rabbits. Pilocarpine hydrochloride (Vuity™) was used as positive control. The pupillometer was placed in the eye socket of the rabbit, and the camera was taken 0 min before and 5 min, 10 min, 15 min, 30 min, 45 min and 1 h after dosing. For the latter picture, take three photos at each time point. After the experiment, the pictures were sorted out to observe the pupil change trend after dosing. This method can be used to evaluate whether the miotic agent moiety in the compounds of the invention can constrict the rabbit's pupil.
Under a constant light source (light intensity 40 Lux), the rabbits were fixed in the rabbit box without anesthesia. Before the experiment, the pupil diameter (mm) before drug administration was measured with a pupil measuring ruler and photographed. […] The time of administration was recorded, and the pupil diameter was measured with a pupillometer and photographed with Canon EOS M6 Mark II (SLR) after 5 min, 10 min, 15 min, 30 min, 45 min, 1 h, 2 h, 3 h, 4 h and 5 h, respectively. […]

[3] = assay decreased more with increasing time

T1 sequence (P22303 32-614, species assumed): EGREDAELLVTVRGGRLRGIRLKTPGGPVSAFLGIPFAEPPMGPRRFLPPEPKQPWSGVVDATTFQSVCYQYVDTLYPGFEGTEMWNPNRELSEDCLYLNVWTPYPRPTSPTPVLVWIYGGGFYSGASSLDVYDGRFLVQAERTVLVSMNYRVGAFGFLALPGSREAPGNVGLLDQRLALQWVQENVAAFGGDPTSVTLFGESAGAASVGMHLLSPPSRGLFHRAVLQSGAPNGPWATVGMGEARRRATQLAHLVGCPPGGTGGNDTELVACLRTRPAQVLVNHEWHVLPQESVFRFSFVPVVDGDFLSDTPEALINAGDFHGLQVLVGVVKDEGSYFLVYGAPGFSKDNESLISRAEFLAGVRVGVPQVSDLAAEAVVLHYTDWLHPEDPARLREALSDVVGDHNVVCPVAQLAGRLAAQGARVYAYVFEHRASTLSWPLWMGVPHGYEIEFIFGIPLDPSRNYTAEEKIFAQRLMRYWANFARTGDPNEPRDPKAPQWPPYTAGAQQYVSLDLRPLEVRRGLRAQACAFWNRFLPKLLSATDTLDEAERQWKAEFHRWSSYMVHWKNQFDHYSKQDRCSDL

Row | Compound | assay of compound remaining during enzymatic hydrolysis ([1]; 0 min) [%] | assay of compound remaining during enzymatic hydrolysis ([1]; 20 min) [%] | assay of compound remaining during enzymatic hydrolysis ([1]; 40 min) [%] | assay of compound remaining during enzymatic hydrolysis ([1]; 60 min) [%] | assay of compound remaining during enzymatic hydrolysis ([1]; 80 min) [%] | assay of compound remaining during enzymatic hydrolysis ([1]; 100 min) [%] | assay of compound remaining during enzymatic hydrolysis ([1]; 120 min) [%] | assay of compound remaining during enzymatic hydrolysis ([1]; 140 min) [%] | assay of compound remaining during enzymatic hydrolysis ([1]; 160 min) [%] | assay of compound remaining during enzymatic hydrolysis ([1]; 180 min) [%] | assay of compound remaining during enzymatic hydrolysis ([1]; 200 min) [%] | hydrolysis by acetylcholinesterase (in words) ([1]; after 200 minutes) | rabbit pupil under treatment (recorded images) [2] | miotic effect in rabbits versus positive control ([2]; 1.25%, 20 μL/eye topical, compared with Vuity 1.25%) | assay of compound remaining during enzymatic hydrolysis ([1]; 220 min) [%] | hydrolysis by acetylcholinesterase (in words) [1, 3] | assay of compound remaining during enzymatic hydrolysis ([1]; 240 min) [%]
1 | CC[C@@H]1C(=O)OC[C@@H]1Cc1c[n+](COC(=O)CCCC[C@@H]2CCSS2)cn1C [Compound 1, 3-(((5-((R)-1,2-dithiolan-3-yl)pentanoyl)oxy)methyl)-5-(((3R,4S)-4-ethyl-5-oxotetrahydrofuran-3-yl)methyl)-1-methyl-1H-imidazol-3-ium chloride] | 70.29 | 56.17 | 34.03 | 30.13 | 19.93 | 17.19 | 15.06 | 11.77 | 8.45 | 6.94 | 5.05 | hydrolyzed by acetylcholinesterase almost completely | shrinking | comparable to the positive control drug |  |  | 
2 | CC[C@@H]1C(=O)OC[C@@H]1Cc1c[n+](CCOC(=O)CCCC[C@@H]2CCSS2)cn1C [Compound 2, 3-(2-((5-((R)-1,2-dithiolan-3-yl)pentanoyl)oxy)ethyl)-5-(((3R,4S)-4-ethyl-5-oxotetrahydrofuran-3-yl)methyl)-1-methyl-1H-imidazol-3-ium chloride] | 100.00 | 95.69 | 88.08 | 86.47 | 80.61 | 77.56 | 75.40 | 72.81 | 68.28 | 65.90 | 63.68 |  |  |  | 60.88 | hydrolyzed by acetylcholinesterase | 
3 | CC[C@@H]1C(=O)OC[C@@H]1Cc1c[n+](CCOCCOCCOC(=O)CCCC[C@@H]2CCSS2)cn1C [Compound 3, 3-(2-(2-(2-((5-((R)-1,2-dithiolan-3-yl)pentanoyl)oxy)ethoxy)ethoxy)ethyl)-5-(((3R,4S)-4-ethyl-5-oxotetrahydrofuran-3-yl)methyl)-1-methyl-1H-imidazol-3-ium] | 95.40 | 88.83 | 88.26 | 79.40 | 75.30 | 70.87 | 68.62 | 63.48 | 62.92 | 59.60 | 54.50 |  |  |  | 55.89 | hydrolyzed by acetylcholinesterase | 51.61

Source: patent US20250101009A1, “Compounds, Compositions and Methods for Treatment of Age-Related Ocular Disorders” (priority 2022, published 2025)
